Laboratory results published in US20240341301A1 (The Regents of the University of Michigan, priority 2023, published 2024).

Columns and labels:
[1] = system: H3K9 and H3K27 histone acetylation; assay: Histone acetylation Western blot in cold-preserved human donor hearts; conditions: HTK containing VPA, cold (4° C.) static preservation 8 h
Protocol: (§1) Heart procurement for both human and pigs were performed as follows. A sternotomy is performed under general anesthesia. The pericardium is then opened to create a pericardial cradle for the heart. Heparin (300U/kg) administered through the right atrium or in a peripheral vein. After waiting 3 minute for adequate anticoagulation from heparin, a 9 Fr antegrade plegia infusion catheter is placed in the ascending aorta. Approximately 1 liter of autologous donor arterial blood is then collected into a collection bottle containing heparin. […] Subsequently, the ascending aorta is cross-clamped distal to the cardioplegia catheter and 1 liter of cold (4° C.) HTK solution is infused into the coronaries at a perfusion pressure of ˜80 mmHg to induce mechanical arrest. After excising the heart completely, it is transported to the back-table for infusion of 2 liters of HTK±VPA solution. After completion, the heart is stored in a solution identical to the perfusate at 4° C. on ice.
Pig hearts underwent ex-vivo perfusion after preservation for 4 or 10 hours. Approval for human heart procurement was obtained from the University of Michigan Institutional Review Board (HUM00131275). Human donor hearts from deceased brain death donors were procured as per standard clinical protocols from the Gift of Life Michigan (GOLM) organ procurement facility. […]

[2] = cited from earlier work
[3] = system: murine donor hearts; assay: Murine ex-vivo heart perfusion after cold preservation; set-up: species or system mouse
Protocol: Male and female WT or Irg1^−/− mice (Jackson laboratories, Bar Harbor, ME) were anesthetized intraperitoneally with 80 mg/kg ketamine and 5 mg/kg xylazine, anticoagulated with heparin (2,000 U/kg iv), and the heart was rapidly exposed through a sternal incision. The aorta was cannulated and retrograde perfused in-situ with HTK solution±HDAC inhibitors. After cannulation, the heart dissected free, the left atrium was opened. For 4-OI (Cayman Chemical, 25374) experiments, donor mice were treated 4-OI (dissolved in 40% β-Cyclodextrin, 50 mg/kg intraperitoneally) or vehicle control (40% β-Cyclodextrin intraperitoneally) 2 hours prior to donor heart procurement. After dissection, the heart was stored at 4° C. with HTK or HTK with VPA for a pre-designated duration. The hearts were then mounted on a Radnoti mouse Langendorff apparatus (ADInstruments inc., Colorado Springs, CO) in constant-pressure mode (˜70 mmHg) with a modified Krebs-Henseleit buffer (KHB; in mM: 118 NaCl, 4.7 KCl, 1.25 CaCl2), 1.66 MgSO4, 24.88 NaHCO3, 1.18 KH2PO4, 5.55 glucose, and 2.0 Na-pyruvate). A balloon was placed in the LV through the left atrium and left ventricular diastolic pressure was set to ˜8 mmHg at initiation. The heart was perfused with modified Krebs-Henseleit buffer for 30 min to stabilize and then hemodynamics measurements were recorded. Myocardial temperature was maintained at 37° C. LabChart software (ADInstruments inc., Colorado Springs, CO) was used to record ventricular function, perfusion pressures, cardiac chamber temperature and myocardial temperature. After perfusing the heart for 60 minutes, the heart was removed from the ex-vivo perfusion apparatus for specimen collection. Tissue was immediately placed in liquid N2 or treated with 4% formalin.

[4] = system: human donor hearts; assay: Mass spectrometry metabolomics of cold-preserved human donor hearts
Protocol: (§2) Pig hearts underwent ex-vivo perfusion after preservation for 4 or 10 hours. Approval for human heart procurement was obtained from the University of Michigan Institutional Review Board (HUM00131275). Human donor hearts from deceased brain death donors were procured as per standard clinical protocols from the Gift of Life Michigan (GOLM) organ procurement facility. Myocardial biopsies (˜5 mm^3) of LV were biopsied immediately after cardioplegic arrest (0 h) and after 8 hours (8 h) of cold storage in a cooler containing ice. […] Causes of death were stroke (n=4), trauma (n=2), drug overdose (n=1), and cardiac arrest (n=1). Heart tissue were either fixed in formalin or snap frozen in liquid N2 for later analysis.
Metabolomics measurements were performed by the Michigan Regional Comprehensive Metabolomics Resource Core (Ann Arbor, MI, USA).

[5] = system: pig hearts; assay: Porcine ex-vivo heart perfusion after cold preservation
Protocol: as §1, §2
For ex-vivo pig heart perfusion (FIG. 15), the ascending aorta is connected to the arterial perfusion cannula and the left atrium is closed by suturing shut the pulmonary veins. A pressure monitoring catheter and left atrial infusion catheter were then placed into the left atrial cavity and secured. The Miller conductance catheter was introduced into the left ventricular cavity for measurement of ventricular performance parameters. The Radnoti constant perfusion pressure apparatus (ADInstruments Inc., Colorado Springs, CO) was utilized for ex-vivo large animal heart perfusion. Approximately 1 liter of previously collected autologous blood was added to ˜3.5 liters of Krebs buffer and this was initially infused at 24° C. with gradual warming to 37° C. After air was removed from the perfusion system, the ascending aorta and coronaries were retrograde perfused through the arterial cannula at physiological pressure ˜80 mmHg, leading to cardiac reanimation. The perfusion pressure was kept constant at ˜80 mmHg so LV contraction would need to overcome this afterload for cardiac output. Shockable arrhythmias such as ventricular tachycardia, ventricular fibrillation, supraventricular tachycardia were electrically cardioverted to sinus rhythm by delivery of 10 or 20 joules of energy. Cardiac performance was assessed in “resting” and “working” modes (60, 61). The left atrial pressure in resting mode was typically 0-1 mmHg. To assess cardiac hemodynamics in “working mode”, perfusate was infused into the left atrium at 4-10 mmHg at the 4-hour time point for LV loading and cardiac output assessment. Because cardiac performance was highly impaired as expected at the 10-hour time point, the left atrium was loaded to a pressure of up to 15 mmHg to assess cardiac output. At 1 hour intervals, both arterial perfusate and coronary sinus blood were collected for monitoring and analysis. Oxygen pressure was kept at about pO2 150-200 mmHg while pCO2 was kept at about 35-40 mmHg. Arterial pH was maintained at 7.35-7.40 by buffering with 5% CO2 during gas exchange. The heart was perfused ex vivo for 3 hours and then arrested with 4° C. HTK solution for specimen collection in formalin or snap frozen with liquid N2. The heart was weighed at the time of procurement and at the end of perfusion. […]

[6] = human hearts during cardiac preservation
[7] = ex vivo perfused hearts compared to HTK alone

CCCC(CCC)C(=O)O [VPA, 2-Propyl-pentanoic acid]
histone acetylation (H3K9, H3K27) after prolonged cardiac preservation [1]: maintained
water solubility [2]: water soluble
ex vivo contractility ([3]; HTK±VPA, cold preservation up to 16 hours): improve
cardioprotective effects of VPA with deficiency in Irg1 ([3]; Irg1−/− hearts, ex vivo perfusion and syngeneic transplant models): reduced
effect of conditional Irg1 deficiency in myeloid cells on VPA's cardioprotective effects on contractility or relaxation ([3]; LysM-Cre hearts, ex vivo perfusion model): did not impact
VPA concentration with peak cardioprotective effect ([3]; titration 5, 10 and 20 mM in HTK, 16 hours preservation): 10 mM
decrease in itaconate during cold storage ([4]; cold preservation, HTK±VPA): limited
succinate production ([4]; cold preservation, HTK±VPA): reduced
fumarate concentration in VPA-treated group [4, 6]: 43.5±6.6 pmol/mg tissue
itaconate concentration in VPA-treated group [4, 6]: 8.0±1.0 pmol/mg tissue
TnI in arterial perfusate [5]: reduced
cleaved caspase 3 expression [5]: decreased
heart weight [5]: no difference
oxygen consumption [5]: higher
total Nrf2 protein in cardiac tissue [5]: increased
NRF2 nuclear translocation ([5]; 4 and 10 hours of preservation): induced
donor heart contractility in working mode ([5]; 4 h and 10 h preservation): improved
donor heart relaxation in working mode ([5]; 4 h and 10 h preservation): improved
oxidative DNA damage via 8-OHdG staining ([5]; 10 h preservation): greatly reduced
improvement of cardiac output (CO) compared with HTK alone ([5]; after 4 h preservation): about 25%
aortic pulse pressure magnitude (systolic minus diastolic pressure) ([5]; after 10 h of preservation): greater
improvement of cardiac output (CO) compared with HTK alone ([5]; after 10 h of preservation): 100%
systolic pressure in the left ventricular cavity ([5]; after 10 h of preservation): higher
perfusate concentration of IL-1β ([5]; after 10 hours of preservation): reduced
perfusate concentration of IL-2 ([5]; after 10 hours of preservation): reduced
perfusate concentration of IL-6 ([5]; after 10 hours of preservation): reduced
perfusate concentration of TNF-α ([5]; after 10 hours of preservation): reduced
expression of pro-survival protein BCL2 ([5]; after 10 h preservation): increased
expression of IRG1 transcript [5, 7]: increased
mRNA abundance of IL1B [5, 7]: decreased
mRNA abundance of IL6 [5, 7]: decreased
mRNA abundance of TNFA [5, 7]: decreased
oxygen consumption compared to HTK alone ([5]; pig hearts preserved for 10 h): greater
